In publication PMC8957230 (ADMET & DMPK, 2019):
In brackets after ≈: the same amount, converted by molar mass. Where two headings read alike, the source gives them in different places. Marks after values point to notes of the source that are not given here.

Columns and labels:
[1] = cited from earlier work
[2] = set-up: method as in earlier work; details: 5 mM sodium taurocholate and […] lecithin in pH 6.8 phosphate buffer; cited from earlier work
[3] = cited from earlier work; remark: listed apart in the source
[4] = Ketoconazole solubility by pH adjustment with HCl (pH-solubility profile); assay type: physicochemical; details: 25 °C
Description: Multiple vials were prepared using different concentration of HCl solutions (0.001M to 1M) so that different pH values could be attained, and, when needed, more amount of free base was added to maintain excess solid in the vials. […] Additional HCl solution and excess ketoconazole were added to the suspension in vial and shaken for another pH point, and the process was repeated until enough points on the pH scale were obtained. More than one suspension in different vials were used to generate a complete profile.

[5] = Solubility in buffered/non-buffered media
Description: Cocrystal solubilities were determined at pH 1 solution (0.1 M HCl), pH 2 HCl buffer), pH 5 acetate buffer and pH 8 phosphate buffer. Buffers were prepared according to the United States Pharmacopeia (USP) procedures. […] Aliquots were filtered by 0.45-micron PVDF filter and analyzed by HPLC. The solid phase was analyzed by Raman spectroscopy.

[6] = Ketoconazole solubility with fumaric/succinic acid and 1:1 physical mixtures with coformers; assay type: physicochemical; details: 1:1 ketoconazole-fumaric acid mixture, 25 °C
Description: A series of solutions with different concentrations of acids were prepared and 3 mL quantities of these solutions were distributed in separate glass vials. […] Aliquots of suspensions (0.5-0.7 mL each) were, however, withdrawn from each vial after 4, 24 and 96 h of shaking for analysis of drug concentration by HPLC according to the method described earlier. For the analysis of solid phase, contents of the vials were transferred to 3-mL Eppendorf tubes and centrifuged using Beckman GS 6R centrifuge at 2000 RPM for 5 min. After centrifugation, the supernatants were removed and solid contents were dried in a vacuum oven at 50 °C, which were then analyzed by DSC and Raman spectroscopy.
In this study, different quantities of the mixtures (12 mg to 350 mg) were added to different 20 mL glass vials, and then 5 mL of water was added to each vial. Thus, the volume of water in each vial remained the same and only the amount of material added differed. […] Samples were withdrawn from each vial at 4, 24 and 96 h to measure drug concentration, as described earlier. The solid phase of the vials was analyzed using Raman spectroscopy to determine the identity of equilibrium species. From some of the vials, solid contents were separated by centrifugation, dried in a vacuum oven, and then analyzed by DSC.

[7] = Intrinsic dissolution rate; assay type: physicochemical; set-up: key: -: Extremely low dissolution rate (practically zero) that could not be calculated with accuracy; details: 25 °C
Description: For each determination, 100 mg of powder was compressed into pellet by Carver press at 1 ton pressure for 10 seconds. The apparatus with the exposed surface of the material was immersed into 250 mL of dissolution medium and rotated at 200 RPM. pH of dissolution media during the intrinsic dissolution testing were maintained by two different methods: in one case, unbuffered media were used where either 0.1 M HCl or 0.1 M NaOH were added to keep pH constant at 3, 4 or 5 (±0.15), and in the second case, pH 3, 4 and 5 phthalate buffers prepared according to the USP were used as dissolution media to keep pH constant. Two mL of aliquot was withdrawn at each of 5, 15, 30, 60, 90 and 120 min time points, filtered by 0.45-micron PVDF filter, and analyzed by HPLC for drug concentration.

[8] = average of two
Description: Essentially, in the present investigation, about 0.5 mL of buffer was added to 200 mg of powder in a small vial and mixed by vortexing, and then pH was recorded when an equilibrium was reached after 5-10 min of mixing.

[9] = excess cocrystal in water, 25 °C
[10] = initial pH 1.1 (0.1 M HCl), 25 °C
[11] = initial pH 2.1 HCl/KCl buffer, 25 °C
[12] = initial pH 5.0 acetate buffer, 25 °C
[13] = initial pH 7.9 phosphate buffer, 25 °C
[14] = buffers, pH 3 phthalate, 0.5 cm^2
[15] = buffers, pH 4 phthalate, 0.5 cm^2
[16] = unbuffered media, pH 3 kept constant with HCl or NaOH, 0.5 cm^2
[17] = unbuffered media, pH 4 kept constant with HCl or NaOH, 0.5 cm^2
[18] = pH 3 phthalate buffer, initial (bulk) pH 2.93
[19] = pH 5 neutralized phthalate buffer, initial (bulk) pH 4.97
[20] = pH 7 phosphate buffer, initial (bulk) pH 6.97

CC(=O)Nc1nc2c(Oc3cc(-c4ccc(C(F)(F)F)cc4)ncn3)cccc2s1 [AMG 517]
pKa [1]: 0.68
Solubility in FaSIF [2]: 5 µg/mL (≈ 11.6 µM)

CC(C)(C)C(=O)OCOP(=O)(COCCn1cnc2c(N)ncnc21)OCOC(=O)C(C)(C)C [adefovir dipivoxil]
Solubility in water [3]: 790 µM
pH of saturated solutions [3]: 6.7

CCOc1ccccc1C(N)=O [ethenzamide]
Solubility in water [3]: 0.80 to 0.85 µg/mL

O=C(O)/C=C/C(=O)O [fumaric acid]
pKa, first ionization [1]: 2.74
pKa, second ionization [1]: 4.17

CC(=O)N1CCN(c2ccc(OC[C@H]3CO[C@](Cn4ccnc4)(c4ccc(Cl)cc4Cl)O3)cc2)CC1.Cl.Cl [ketoconazole dihydrochloride salt, ketoconazole dihydrochloride]
Solubility (in words) [3]: very high solubility

CC(=O)N1CCN(c2ccc(OCC3COC(Cn4ccnc4)(c4ccc(Cl)cc4Cl)O3)cc2)CC1 (stereo not shown) [ketoconazole]
solubility ([4]; pH of suspension 3.35, pH lowered using HCl, listed as ketoconazole base): 5429 µg/mL (≈ 10200 µM)
solubility ([4]; suspension in distilled water, pH adjusted with HCl, pH 3.1, aqueous buffer, thermodynamic from solid, pH 3.1, pH adjusted with HCl, read-out: Highest solubility measured): 148000 µg/mL (≈ 279000 µM)
solubility ([4]; suspension in distilled water, pH adjusted with HCl, pH 3.1, aqueous buffer, thermodynamic from solid, pH of suspension 3.1, pH lowered using HCl, read-out: Solubility): 148000 µg/mL (≈ 279000 µM)
solubility ([4]; suspension in distilled water, pH adjusted with HCl, pH 3.35, aqueous buffer, thermodynamic from solid, pH of suspension 3.35, pH lowered using HCl, read-out: Solubility): 5460 µg/mL (≈ 10300 µM)
solubility ([4]; suspension in distilled water, pH adjusted with HCl, pH 3.37, aqueous buffer, thermodynamic from solid, pH of suspension 3.37, pH lowered using HCl, read-out: Solubility): 7100 µg/mL (≈ 13400 µM)
solubility ([4]; suspension in distilled water, pH adjusted with HCl, pH 3.58, aqueous buffer, thermodynamic from solid, pH of suspension 3.58, pH lowered using HCl, read-out: Solubility): 3420 µg/mL (≈ 6440 µM)
solubility ([4]; suspension in distilled water, pH adjusted with HCl, pH 3.81, aqueous buffer, thermodynamic from solid, pH of suspension 3.81, pH lowered using HCl, read-out: Solubility): 1930 µg/mL (≈ 3630 µM)
solubility ([4]; suspension in distilled water, pH adjusted with HCl, pH 4.28, aqueous buffer, thermodynamic from solid, pH of suspension 4.28, pH lowered using HCl, read-out: Solubility): 729 µg/mL (≈ 1370 µM)
solubility ([4]; suspension in distilled water, pH adjusted with HCl, pH 4.48, aqueous buffer, thermodynamic from solid, pH of suspension 4.48, pH lowered using HCl, read-out: Solubility): 345 µg/mL (≈ 649 µM)
solubility ([4]; suspension in distilled water, pH adjusted with HCl, pH 4.56, aqueous buffer, thermodynamic from solid, pH of suspension 4.56, pH lowered using HCl, read-out: Solubility): 354 µg/mL (≈ 666 µM)
solubility ([4]; suspension in distilled water, pH adjusted with HCl, pH 4.95, aqueous buffer, thermodynamic from solid, pH of suspension 4.95, pH lowered using HCl, read-out: Solubility): 178 µg/mL (≈ 335 µM)
solubility ([4]; suspension in distilled water, pH adjusted with HCl, pH 4.99, aqueous buffer, thermodynamic from solid, pH of suspension 4.99, pH lowered using HCl, read-out: Solubility): 175 µg/mL (≈ 329 µM)
solubility ([4]; suspension in distilled water, pH adjusted with HCl, pH 7.12, aqueous buffer, thermodynamic from solid, pH of suspension 7.12, pH lowered using HCl, read-out: Solubility): 5 µg/mL (≈ 9.41 µM)
solubility ([4]; suspension in distilled water, pH adjusted with HCl, pH 7.23, aqueous buffer, thermodynamic from solid, pH of suspension 7.23, pH lowered using HCl, read-out: Solubility): 4 µg/mL (≈ 7.53 µM)
solubility ([4]; suspension in distilled water, pH adjusted with HCl, pH 3.67, pH of suspension 3.67, pH lowered using HCl, read-out: Solubility): 3030 µg/mL (≈ 5700 µM)
solubility ([4]; suspension in distilled water, pH adjusted with HCl, pH 3.71, pH of suspension 3.71, pH lowered using HCl, read-out: Solubility): 2780 µg/mL (≈ 5230 µM)
solubility ([4]; suspension in distilled water, pH adjusted with HCl, pH 7.27, pH of suspension 7.27, pH lowered using HCl, read-out: Solubility): 3 µg/mL (≈ 5.65 µM)
solubility ([4]; suspension in distilled water, pH adjusted with HCl, pH 7.72, pH of suspension 7.72, pH lowered using HCl, read-out: Solubility): 2 µg/mL (≈ 3.76 µM)
solubility ([4]; suspension in distilled water, pH adjusted with HCl, pH 7.92, pH of suspension 7.92, pH lowered using HCl, read-out: Solubility): 3 µg/mL (≈ 5.65 µM)
solubility ([4]; suspension in distilled water, pH adjusted with HCl, pH 8.49, pH of suspension 8.49, pH lowered using HCl, read-out: Solubility): 2 µg/mL (≈ 3.76 µM)
solubility ([4]; suspension in distilled water, pH adjusted with HCl, pH higher than 8, read-out: Intrinsic solubility of the free base (nonprotonated species)): ~2 µg/mL (≈ 3.76 µM)
solubility ([5]; 0.1 M HCl, 25 °C, pH 1.1, simulated gastric fluid, thermodynamic from solid): ~27000 µg/mL (≈ 50800 µM)
solubility ([5]; HCl/KCl buffer, 25 °C, pH 2.1, simulated gastric fluid, thermodynamic from solid): ~3400 µg/mL (≈ 6400 µM)
solubility ([5]; acetate buffer, 25 °C, pH 5, aqueous buffer, thermodynamic from solid): 130 µg/mL (≈ 245 µM)
pH after equilibration [5, 10]: ~2.9 ^*
pH after equilibration [5, 11]: ~3.6 ^*
pH after equilibration [5, 12]: 4.95
pH after equilibration [5, 13]: 7.82±0.01
solubility ([5]; phosphate buffer, pH 7.9): 1 µg/mL (≈ 1.88 µM)
solubility at 96 h ([6]; equilibrated 96 h, pH~3.7): ~3000 µg/mL (≈ 5650 µM)
solubility at 4 h ([6]; water, thermodynamic from solid, equilibrated 4 h, no conversion to cocrystal): ~7000 µg/mL (≈ 13200 µM)
Dissolution rate constant [7, 14]: 108 μg.min^-1.cm^-2
Dissolution rate constant [7, 15]: 45 μg.min^-1.cm^-2
Dissolution rate constant ([7]; buffers, pH 5 phthalate): - ^**
Dissolution rate constant [7, 16]: 106 μg.min^-1.cm^-2
Dissolution rate constant [7, 17]: 16 μg.min^-1.cm^-2
Dissolution rate constant ([7]; unbuffered media, pH 5 kept constant with HCl or NaOH): - ^**
pH h=0 (slurry pH) [8, 18]: 4.17
pH h=0 (slurry pH) [8, 19]: 5.00
pH h=0 (slurry pH) [8, 20]: 7.05

Nc1nnc(-c2cccc(Cl)c2Cl)c(N)n1 [lamotrigine]
Solubility in water [3]: 154 µg/mL
pH of the aqueous slurries during the determination of solubility [3]: 6.8
Solubility in water ([3]; pH of ~5.5, cocrystals at 1:1 ratios): 280 µg/mL

O=C(O)CCC(=O)O [succinic acid]
pKa, first ionization [1]: 3.93
pKa, second ionization [1]: 5.30

ketoconazole-fumaric acid cocrystal
pH after equilibration [5, 10]: 2.03± 0.01
solubility ([5]; initial pH 1.1 (0.1 M HCl), 25 °C, average of three determinations): 21540 ± 550 µg/mL
pH after equilibration [5, 11]: 2.89 ± 0.02
solubility ([5]; initial pH 2.1 HCl/KCl buffer, 25 °C, average of three determinations): 3390 ± 20 µg/mL
pH after equilibration [5, 12]: 4.31 ± 0.02
solubility ([5]; initial pH 5.0 acetate buffer, 25 °C, average of three determinations): 600 ± 20 µg/mL
pH after equilibration [5, 13]: 7.17 ± 0.01
solubility ([5]; initial pH 7.9 phosphate buffer, 25 °C, average of three determinations): 3 ± 2 µg/mL
Dissolution rate constant [7, 14]: 108 μg.min^-1.cm^-2
Dissolution rate constant [7, 15]: 71 μg.min^-1.cm^-2
Dissolution rate constant ([7]; buffers, pH 5 phthalate, 0.5 cm^2): 51 μg.min^-1.cm^-2
Dissolution rate constant [7, 16]: 164 μg.min^-1.cm^-2
Dissolution rate constant [7, 17]: 124 μg.min^-1.cm^-2
Dissolution rate constant ([7]; unbuffered media, pH 5 kept constant with HCl or NaOH, 0.5 cm^2): 93 μg.min^-1.cm^-2
pH of saturated solution in water [9]: 4.1
Solubility in water (as ketoconazole equivalents) ([9]; saturated solution pH 4.1 (fumaric) / 4.2 (succinic)): 2600 µg/mL
pH h=0 (slurry pH) [8, 18]: 3.13
pH h=0 (slurry pH) ([8]; pH 4 phthalate buffer, initial (bulk) pH 3.96): 4.08
pH h=0 (slurry pH) [8, 19]: 4.23
pH h=0 (slurry pH) [8, 20]: 4.53
